In patent publication US10245264B2, “Substituted imidazo[1,2-a]pyrazines as soluble guanylate cyclase activators” (Merck Sharp & Dohme Corp., priority 2015, dated 2019):

Target: T1, sGC α1/β1 heterodimer stably expressed in CHO-K1 cells (CHO-K1/sGC) (Homo sapiens, UniProt Q02108+Q02153)
T1 construct: expressed in transfected cells
T1 sequence (Q02108 1-690): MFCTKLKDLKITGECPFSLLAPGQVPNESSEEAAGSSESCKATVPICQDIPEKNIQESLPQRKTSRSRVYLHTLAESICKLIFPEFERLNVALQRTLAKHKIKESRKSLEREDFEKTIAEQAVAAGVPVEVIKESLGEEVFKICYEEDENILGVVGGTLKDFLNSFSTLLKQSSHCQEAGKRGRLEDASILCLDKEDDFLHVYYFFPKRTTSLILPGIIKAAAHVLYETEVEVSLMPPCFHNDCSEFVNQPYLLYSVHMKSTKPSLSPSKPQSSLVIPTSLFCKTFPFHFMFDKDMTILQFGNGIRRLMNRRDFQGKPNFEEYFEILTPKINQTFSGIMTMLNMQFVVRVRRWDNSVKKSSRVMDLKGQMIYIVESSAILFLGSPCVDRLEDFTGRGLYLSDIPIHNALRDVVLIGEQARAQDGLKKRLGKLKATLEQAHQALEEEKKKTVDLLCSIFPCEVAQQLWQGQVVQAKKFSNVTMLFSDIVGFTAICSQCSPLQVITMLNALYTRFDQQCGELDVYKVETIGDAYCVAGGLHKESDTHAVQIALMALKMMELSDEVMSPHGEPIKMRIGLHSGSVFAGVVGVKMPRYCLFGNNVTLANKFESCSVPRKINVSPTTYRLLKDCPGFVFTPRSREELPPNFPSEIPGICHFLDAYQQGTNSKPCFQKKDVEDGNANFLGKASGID
T1 sequence (Q02153 1-619): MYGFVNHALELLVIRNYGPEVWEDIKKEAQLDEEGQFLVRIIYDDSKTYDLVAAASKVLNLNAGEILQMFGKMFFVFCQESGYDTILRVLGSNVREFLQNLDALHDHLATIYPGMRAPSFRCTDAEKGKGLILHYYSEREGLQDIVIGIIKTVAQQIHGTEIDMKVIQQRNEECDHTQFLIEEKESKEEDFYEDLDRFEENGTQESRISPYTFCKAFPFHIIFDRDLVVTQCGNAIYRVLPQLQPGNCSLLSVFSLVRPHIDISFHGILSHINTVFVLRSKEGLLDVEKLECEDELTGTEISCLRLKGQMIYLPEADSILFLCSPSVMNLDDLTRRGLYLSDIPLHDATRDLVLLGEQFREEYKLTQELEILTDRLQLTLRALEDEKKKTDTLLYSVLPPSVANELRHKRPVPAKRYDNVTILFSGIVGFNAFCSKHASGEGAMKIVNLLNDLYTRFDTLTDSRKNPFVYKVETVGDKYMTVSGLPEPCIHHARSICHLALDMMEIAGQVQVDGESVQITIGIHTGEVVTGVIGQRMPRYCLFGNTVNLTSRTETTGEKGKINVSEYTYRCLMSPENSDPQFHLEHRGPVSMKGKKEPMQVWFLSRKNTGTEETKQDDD
Experiment: Cell-based sGC functional assay (CASA assay), cGMP generation by HTRF
Details: for Emax: CHO-K1, maximum cGMP production of Compound A set to 100% activation, read-out: % Act. (percent activation relative to Compound A); for EC50: CHO-K1/sGC cells, 1 hr at 37° C., 4P fit, presence or absence of DETA-NO not given, read-out: IP (nM) (inflection point); for % Act. (percent activation relative to Compound A): maximum cGMP production of Compound A set to 100% activation
Source text: Biological Assay 1: Cell-Based sGC Functional Assay (CASA Assay) Rationale
sGC is a heme-containing enzyme that converts GTP to secondary messenger cGMP. Increases in cGMP levels affect several physiological processes including vasorelaxation through multiple downstream pathways. […] Heme-dependent activators (HDAs) preferentially activate sGC containing a ferrous heme group. To determine the effect of sGC activators on enzyme activity, the CASA assay was developed to monitor the generation of cGMP in a cell line that stably expresses the heterodimeric sGC protein.
A CHO-K1 cell line stably expressing the sGC α1/β1 heterodimer was generated using a standard transfection protocol. CHO-K1 cells were transfected with plasmids pIREShyghsGCα1 and pIRESneo-hsGCβ1 simultaneously using FUGENE reagent. Clones that stably express both subunits were selected with hygromycin and neomycin for ˜2 weeks. Clone #7 was chosen for the assay and was designated CHO-K1/sGC. CHO-K1/sGC cells were maintained in F-K12 medium containing 10% heat-inactivated Fetal Bovine Serum (FBS), 100 μg/mL penicillin/streptomycin, 0.5 mg/mL hygromycin and 0.25 mg/mL G418. The cells were then cryopreserved in LN2. On the day of the assay, cells were thawed and resuspended in EBSS Assay Buffer (Sigma, E3024) supplemented with 5 mM MgCl2, 10 mM HEPES (4-(2-hydroxyethyl)piperazine-1-ethanesulfonic acid) and 0.05% BSA (bovine serum albumin) (EAB) and cell density was then adjusted to 4×10^5/mL with EAB. IBMX (3-isobutyl-1-methylxanthin, 0.5 mM) was added to inhibit degradation of cGMP. Compounds were diluted from DMSO stock solutions and added to the assay at a final DMSO concentration of 2.5%. Cells were incubated with compounds in the presence and absence of 1 μM of Diethylenetriamine/nitric oxide adduct (DETA-NO; Sigma, 17018) for 1 hr at 37° C. At the end of the incubation period, the reaction was terminated and the cells were lysed with the detection reagents from Cisbio Kits. The level of intracellular cGMP was determined using an HTRF-based assay kit (CisBio, 62GM2PEC), which detects the displacement of a fluorescence labeled cGMP from its specific antibody. The cGMP produced by test compounds was directly compared to the maximum cGMP production (this value was set to equal 100% activation.) of the published sGC-HDA Compound A:
[drawing 101] (Example 1 in WO 2010/065275, published Jun. 10, 2010). The test compounds' activities were then expressed as a percentage of Compound A, the standard in every experiment. This percent activation was calculated either in the presence or absence of DETA-NO which was then plotted. IP and maximum fold induction was derived using ADA analysis software for 4P fit.
The compounds in the Examples of the instant invention had inflection points (IP) less than or equal to 10 μM and many had IPs less than or equal to about 1 μM.

SMILES	Emax	EC50	% Act. (percent activation relative to Compound A)
CCCC(C)Oc1nc(-c2nc(N)c3c(n2)NC(=O)C3(C)c2ccc(F)cc2)cn2ccnc12 (racemic) [Example 65A, 4-amino-5-(4-fluorophenyl)-5-methyl-2-[8-(1-methyl-butoxy)imidazo [1,2-a]pyrazin-6-yl]-5,7-dihydro-6H-pyrrolo[2,3-d] pyrimidin-6-one]	101%	461 nM	
CC(CNc1nc(-c2nc(N)c3c(n2)NC(=O)C3(C)c2ccc(F)cc2)cn2ccnc12)C(F)(F)F (racemic) [Example 70, 4-amino-5-(4-fluorophenyl)-5-methyl-2-{8-[(3,3,3-trifluoro-2-methylpropyl)amino]imidazo [1,2-a]pyrazin-6-yl}-5,7-dihydro-6H-pyrrolo[2,3-d] pyrimidin-6-one]	89%	291 nM	
CC1(c2ccc(Cl)cc2)C(=O)Nc2nc(-c3cn4ccnc4c(OCC4CCCOC4)n3)nc(N)c21 (single isomer, unassigned; fast eluting) [Example 66A, 4-amino-5-(4-chlorophenyl)-5-methyl-2-[8-(tetrahydro-2H-pyran-3-ylmethoxy)imidazo[1,2-a]pyrazin-6-yl]-5,7-dihydro-6H-pyrrolo [2,3-d] pyrimidin-6-one (fast eluting)]		1710 nM	115%
CC1(c2ccc(Cl)cc2)C(=O)Nc2nc(-c3cn4ccnc4c(OCC4CCCCO4)n3)nc(N)c21 (single isomer, unassigned; fast eluting) [Example 68A, 4-amino-5-(4-chlorophenyl)-5-methyl-2-[8-(tetrahydro-2H-pyran-2-ylmethoxy)imidazo[1,2-a]pyrazin-6-yl]-5,7-dihydro-6H-pyrrolo [2,3-d] pyrimidin-6-one (fast eluting)]	86%	324 nM	
C[C@H](Oc1nc(-c2nc(N)c3c(n2)NC(=O)C3(C)c2ccc(Cl)cc2)cn2ccnc12)c1ccccc1 (single isomer, unassigned; fast eluting) [Example 69A]	103%	833 nM	
CC1(c2ccc(Cl)cc2)C(=O)Nc2nc(-c3cn4ccnc4c(NCC4CCCCO4)n3)nc(N)c21 (single isomer, unassigned; fast eluting) [Example 71A, 4-amino-5-(4-chlorophenyl)-5-methyl-2-{8-[(tetrahydro-2H-pyran-2-ylmethyl)amino]imidazo [1,2-a]pyrazin-6-yl}-5,7-dihydro-6H-pyrrolo[2,3-d] pyrimidin-6-one (fast eluting)]	96%	175 nM	
CC1(c2ccc(Cl)cc2)C(=O)Nc2nc(-c3cn4ccnc4c(NCC4CCCOC4)n3)nc(N)c21 (single isomer, unassigned; fast eluting) [Example 72A, 4-amino-5-(4-chlorophenyl)-5-methyl-2-{8-[(tetrahydro-2H-pyran-3-ylmethyl)amino]imidazo [1,2-a]pyrazin-6-yl}-5,7-dihydro-6H-pyrrolo[2,3-d] pyrimidin-6-one (fast eluting)]	96%	1080 nM	
CC1(c2ccc(Cl)cc2)C(=O)Nc2nc(-c3cn4ccnc4c(OCC4CCCOC4)n3)nc(N)c21 (single isomer, unassigned; slow eluting) [Example 67B, 4-amino-5-(4-chlorophenyl)-5-methyl-2-[8-(tetrahydro-2H-pyran-3-ylmethoxy)imidazo[1,2-a]pyrazin-6-yl]-5,7-dihydro-6H-pyrrolo [2,3-d] pyrimidin-6-one (slow eluting)]		501 nM	94%
CC1(c2ccc(Cl)cc2)C(=O)Nc2nc(-c3cn4ccnc4c(OCC4CCCCO4)n3)nc(N)c21 (single isomer, unassigned; slow eluting) [Example 68B, 4-amino-5-(4-chlorophenyl)-5-methyl-2-[8-(tetrahydro-2H-pyran-2-ylmethoxy)imidazo[1,2-a]pyrazin-6-yl]-5,7-dihydro-6H-pyrrolo [2,3-d] pyrimidin-6-one (slow eluting)]		633 nM	85%
CC1(c2ccc(Cl)cc2)C(=O)Nc2nc(-c3cn4ccnc4c(NCC4CCCCO4)n3)nc(N)c21 (single isomer, unassigned; slow eluting) [Example 71B, 4-amino-5-(4-chlorophenyl)-5-methyl-2-{8-[(tetrahydro-2H-pyran-2-ylmethyl)amino]imidazo [1,2-a]pyrazin-6-yl}-5,7-dihydro-6H-pyrrolo[2,3-d] pyrimidin-6-one (slow eluting)]		143 nM	95%
CC1(c2ccc(Cl)cc2)C(=O)Nc2nc(-c3cn4ccnc4c(NCC4CCCOC4)n3)nc(N)c21 (single isomer, unassigned; slow eluting) [Example 72B, 4-amino-5-(4-chlorophenyl)-5-methyl-2-{8-[(tetrahydro-2H-pyran-3-ylmethyl)amino]imidazo [1,2-a]pyrazin-6-yl}-5,7-dihydro-6H-pyrrolo[2,3-d] pyrimidin-6-one (slow eluting)]		412 nM	94%
CC1(c2ccccc2)C(=O)Nc2nc(-c3cn4ccnc4c(OCC(F)(F)C(F)(F)F)n3)nc(N)c21 (stereo not shown) [Example 3B, 4-amino-5-methyl-2-[8-(2,2,3,3,3-pentafluoropropoxy)imidazo[1,2-a]pyrazin-6-yl]-5-phenyl-5,7-dihydro-6H-pyrrolo [2,3-d]pyrimidin-6-one]	97%	416 nM	
CC1(c2ccccc2)C(=O)Nc2nc(-c3cn4ccnc4c(Oc4ccccc4F)n3)nc(N)c21 (stereo not shown) [Example 5B, 4-amino-2-[8-(2-fluorophenoxy)imidazo[1,2-a]pyrazin-6-yl]-5-methyl-5-phenyl-5,7-dihydro-6H-pyrrolo[2,3-d] pyrimidin-6-one]	107%	80 nM	
CC1(c2ccc(F)cc2)C(=O)Nc2nc(-c3cn4ccnc4c(Oc4c(F)ccc(F)c4F)n3)nc(N)c21 (stereo not shown) [Example 6A, 4-amino-5-(4-fluorophenyl)-5-methyl-2-[8-(2,3,6-trifluorophenoxy)imidazo[1,2-a]pyrazin-6-yl]-5,7-dihydro-6H-pyrrolo[2,3-d] pyrimidin-6-one]	89%	499 nM	
